Earlier results in patent US20240299410A1 (Woolsey Pharmaceuticals, Inc., priority 2022, published 2024).
Where a name gives a salt, the structure may show the parent alone. Read-outs that look alike come from different tables or passages of the source.

Assays:
[1] = oral fasudil in drinking water; cited from earlier work
SOD mice = conditions: cited from earlier work; for motor function: presymptomatic SOD mice, 30 mg/kg in drinking water (Günther et al. 2014)
[2] = humans, intravenous administration, after an hour; cited from earlier work
human ALS patients = conditions: three ALS patients, 30 mg intravenously twice daily over 20 consecutive working days; cited from earlier work
[3] = male SOD mice, both 30 mg/kg and 100 mg/kg (Takata 2013)

O=S(=O)(c1cccc2c(O)nccc12)N1CCCNCC1 [M3, hydroxyfasudil]
M3 in male rats relative to female rats [1]: ~7 fold

C[C@@H](N)[C@H]1CC[C@H](C(=O)Nc2ccncc2)CC1 [Y-27632]
motor function (SOD mice; female): did not significantly improve motor function
motor function (SOD mice; male): improved motor function

O=S(=O)(c1cccc2cnccc12)N1CCCNCC1 [fasudil, Hexahydro-1-(5-isoquinolinesulfonyl)-1H-1,4-diazepine monohydrochloride hemihydrate]
mixture of fasudil and M3 in CSF [2]: 50/50
outcome of compassionate use treatment (human ALS patients): no conclusive results beyond safety
motor behavior (SOD mice; male SOD mice, 30 mg/kg and 100 mg/kg beginning at disease onset (Günther 2017)): significantly improved motor behavior
survival time (SOD mice; [3]): prolonged survival time
symptom onset (motor performance, motor neuron loss) (SOD mice; [3]): delayed symptom onset
prolonging disease duration, 100 mg/kg versus 30 mg/kg (SOD mice; presymptomatic female SOD mice, oral (Tönges et al. 2013)): not as effective at prolonging disease duration as the lower dose
